Experimental data as given in the NIST ThermoML archive (doi:10.1021/acs.jced.8b01200).
± gives the expanded uncertainty stated by the source.

Legend:
[1] = Crystal; DSC
[2] = Molar enthalpy of transition or fusion; settings: Crystal; DSC

CCCCCCCCCCCCCCCCCC(=O)OCC(COC(=O)CCCCCCCCCCCCCCCCC)OC(=O)CCCCCCCCCCCCCCCCC [glycerol trioctadecanoate]
Triple point temperature [1]: 343.8 ± 1.4 K
Molar enthalpy of transition or fusion [2]: 184 ± 3.7 kJ/mol

Cc1ccc(C(C)C)c(O)c1 [3-methyl-6-isopropylphenol]
Triple point temperature [1]: 321.9 ± 1.4 K
Molar enthalpy of transition or fusion [2]: 13 ± 2.1 kJ/mol

CC(C)[C@@H]1CC[C@@H](C)C[C@H]1O [L-menthol]
Triple point temperature [1]: 314.4 ± 2.4 K
Molar enthalpy of transition or fusion [2]: 11.9 ± 1.9 kJ/mol

CCCCCCCCCCCCCCCC(=O)OCC(COC(=O)CCCCCCCCCCCCCCC)OC(=O)CCCCCCCCCCCCCCC [1,2,3-propanetriyl tri(hexadecanoate)]
Triple point temperature [1]: 336.8 ± 1.4 K
Molar enthalpy of transition or fusion [2]: 159 ± 3.3 kJ/mol

CCCCCCCCCCCCCC(=O)OCC(COC(=O)CCCCCCCCCCCCC)OC(=O)CCCCCCCCCCCCC [1,2,3-propanetriyl tri(tetradecanoate)]
Triple point temperature [1]: 329.4 ± 1.4 K
Molar enthalpy of transition or fusion [2]: 144 ± 3.1 kJ/mol
